Measured values from US20110060043A1, “INHIBITORS OF CELL PROLIFERATION AND USES THEREOF” (European Molecular Biology Laboratory (EMBL), priority 2008, published 2011).

Tested on: MCF-7 cells
Experiment: Cytotoxicity assay (ATPLite cell viability, 72 h) on MCF-7 cells
Format: cell-based
Settings: Homo sapiens, MCF7; 72 hours incubation, triplicate, ATP levels (ATPLite), inhibition of growth vs DMSO only control
Method: Preferred compounds were analyzed for their ability to inhibit growth of tumour cells (e.g. MCF7, HL60, LL2, HeLa, PC-3, A549 and A375 cells) in vitro. Growth inhibition was tested at various concentrations in a 10 point two fold serial dilution and cells were incubated under standard mammalian tissue culture conditions for 72 hours in triplicate. Cell viability was measured by measuring ATP levels in viable cells using the ATPLite kit (PerkinElmer) as described in the user manual. Raw data was transformed to percentage inhibition of growth compared to a DMSO only control and values were expressed as IC50 in micromolar calculated using XLfit (IDBS).

For COC(=O)c1ccc(C)c(NS(=O)(=O)c2ccc(OC)cc2)c1 [Compound (IV), 3-[[(4-methoxyphenyl)sulfonyl]amino]-4-methyl-benzoic acid methyl ester], the IC50 was 230 nM.

COC(=O)c1ccc(C)c(NS(=O)(=O)c2ccc(C)cc2)c1 [Compound (IX), 3-[[(4-methylphenyl)sulfonyl]amino]-4-methyl-benzoic acid methyl ester] was tested, and the IC50 was 280 nM.

For CCOc1ccc(S(=O)(=O)Nc2cc(C(=O)OC)ccc2C)cc1 [Compound (V), 3-[[(4-ethoxyphenyl)sulfonyl]amino]-4-methyl-benzoic acid methyl ester], the IC50 was 160 nM.

Molecule COC(=O)c1ccc(C)c(NS(=O)(=O)c2ccc(Cl)cc2)c1 [Compound (VI), 3-[[(4-chlorophenyl)sulfonyl]amino]-4-methyl-benzoic acid methyl ester] has an IC50 of 1100 nM.
